Reference: Sander's compilation of Henry's law constants (doi:10.1016/s0021-9673(98)00877-2)

Test: Henry solubility constant Hcp at 298.15 K (mol/(m3 Pa))
Conditions: reference: Dewulf et al. (1999)

Compound | Henry solubility constant Hcp
c1ccc2ccccc2c1 [naphthalene] | 0.013
Clc1cccc(Cl)c1Cl [1,2,3-trichlorobenzene] | 0.0036
C=C(Cl)Cl [1,1-dichloroethene] | 0.00037
CC(Cl)CCl (centres undefined) [1,2-dichloropropane] | 0.0035
C1CCCCC1 [cyclohexane] | 5.2e-05
Cc1ccccc1 [methylbenzene] | 0.0015
Clc1ccccc1 [chlorobenzene] | 0.0025
COc1ccccc1 [methoxybenzene] | 0.026
Clc1cc(Cl)cc(Cl)c1 [1,3,5-trichlorobenzene] | 0.0018
ClC=C(Cl)Cl [trichloroethene] | 0.00095
Fc1ccccc1 [fluorobenzene] | 0.0014
O=[N+]([O-])c1ccccc1 [nitrobenzene] | 0.023
ClC(Cl)=C(Cl)C(Cl)=C(Cl)Cl [hexachlorobutadiene] | 0.00062
ClCC(Cl)Cl [1,1,2-trichloroethane] | 0.011
